In patent US12281225B2, “Process for preparing stable polymers containing vinylimidazole” (BASF SE, priority 2018, dated 2025):

Key:
[1] = system: Bacteria: Escherichia coli, Staphylococcus aureus, Pseudomonas aeruginosa, Pseudomonas putida, Burkholderia cepacia, Alcaligenes faecalis; assay: Preservation test with periodic inoculation, bacteria assessment; format: cell-based; conditions: for Start sample measurement, bact. assess., 4th inoculation: freshly formulated; for 60 d 40° C., bact. assess., 4th inoculation: sample stored 60 d at 40° C.
Summary of the method: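 Semiquantitative growth scores (−− no growth to ++ strong growth) from weekly agar streaks incubated 3 days at 25 °C. Preserved polymer samples got four weekly 0.5 ml inoculations (titer 10^9 organisms/ml), the first two days after preservative addition; testing began fresh and after 60-day storage at 40 °C.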

[2] = Physical stability; visual assessment (color, turbidity, phase separation); format: physicochemical; parameters: key: ++: no discernible change with respect to color, turbidity or phase separation; +: marginal change in color number, somewhat increased Tyndall effect but no turbidity; 0: easily discernible increase in color number and moderate turbidity−no phase separation; −: turbidity and change in color number readily discernible by visual assessment; −−: strong color change with strong turbidity and incipient phase separation
Summary of the method: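 Scoring was by eye on a scale from ++ to −−, where ++ means no change and −− means strong color change, strong turbidity and incipient phase separation. Color, turbidity and phase separation were the criteria.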

[3] = Iodine color number according to DIN 6162:2014-09; format: physicochemical
[4] = Analysis of active substance: preservative concentration before and after storage in VI-containing polymer solution; format: physicochemical; conditions: for active-substance concentration, 0 d, RT: before storage; for active-substance concentration, 14 d, 40° C.: storage 14 d at 40° C.; for active-substance concentration, 28 d, 40° C.: storage 28 d at 40° C.; for active-substance concentration, 60 d 40° C.: storage 60 d at 40° C.
Summary of the method: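 Preservatives (MIT, BIT, CMIT, OIT, DCOIT, iodopropynyl butyl carbamate) in aqueous vinylpyrrolidone–vinylimidazole copolymer solution quantified after dilution by isocratic RP18 chromatography with UV detection, using an acid-methanol eluent.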

[5] = Polymer P5 (HP56) with stabilizer

Cn1sccc1=O [MIT, methyl-4-isothiazolin-3-one]
Start sample measurement, bact. assess., 4th inoculation ([1]; Polymer P1): − (slight growth, max. 100 colonies)
60 d 40° C., bact. assess., 4th inoculation ([1]; Polymer P1): +
Start sample measurement, bact. assess., 4th inoculation ([1]; Polymer P2): − (slight growth, max. 100 colonies)
60 d 40° C., bact. assess., 4th inoculation ([1]; Polymer P2): +
Start sample measurement, bact. assess., 4th inoculation ([1]; Polymer P3): − (slight growth, max. 100 colonies)
60 d 40° C., bact. assess., 4th inoculation ([1]; Polymer P3): +
60 d 40° C., bact. assess., 4th inoculation ([1]; Polymer P4): +
60 d 40° C., bact. assess., 4th inoculation ([1]; Polymer P5 (HP56)): +
60 d 40° C., bact. assess., 4th inoculation ([1]; Polymer P6): +
60 d 40° C., bact. assess., 4th inoculation ([1]; Polymer P7): +
Start sample measurement, bact. assess., 4th inoculation ([1]; Polymer P8): − (slight growth, max. 100 colonies)
60 d 40° C., bact. assess., 4th inoculation ([1]; Polymer P8): +
60 d 40° C., bact. assess., 4th inoculation ([1]; Polymer P9): +
Physical stability, 60 d 40° C.* ([2]; Polymer P1 with stabilizer): −
Physical stability, 60 d 40° C.* ([2]; Polymer P2 with stabilizer): −
Physical stability, 60 d 40° C.* ([2]; Polymer P3 with stabilizer): −
Physical stability, 60 d 40° C.* ([2]; Polymer P4 with stabilizer): −
Physical stability, 60 d 40° C.* [2, 5]: −
Physical stability, 60 d 40° C.* ([2]; Polymer P6 with stabilizer): −
Physical stability, 60 d 40° C.* ([2]; Polymer P7 with stabilizer): −
Physical stability, 60 d 40° C.* ([2]; Polymer P8 with stabilizer): −
Physical stability, 60 d 40° C.* ([2]; Polymer P9 with stabilizer): −
Iodine color number, 60 d 40° C. ([3]; Polymer P1 with stabilizer): 5.5
Iodine color number, start ([3]; Polymer P1 with stabilizer): 2.5
Iodine color number, 60 d 40° C. ([3]; Polymer P2 with stabilizer): 5.8
Iodine color number, start ([3]; Polymer P2 with stabilizer): 2.7
Iodine color number, 60 d 40° C. ([3]; Polymer P3 with stabilizer): 8.5
Iodine color number, start ([3]; Polymer P3 with stabilizer): 3.4
Iodine color number, 60 d 40° C. ([3]; Polymer P4 with stabilizer): 8.7
Iodine color number, start ([3]; Polymer P4 with stabilizer): 3.4
Iodine color number, 60 d 40° C. [3, 5]: 8.7
Iodine color number, start [3, 5]: 3.6
Iodine color number, 60 d 40° C. ([3]; Polymer P6 with stabilizer): 8.5
Iodine color number, start ([3]; Polymer P6 with stabilizer): 3.6
Iodine color number, 60 d 40° C. ([3]; Polymer P7 with stabilizer): 8.5
Iodine color number, start ([3]; Polymer P7 with stabilizer): 3.6
Iodine color number, 60 d 40° C. ([3]; Polymer P8 with stabilizer): 8.6
Iodine color number, start ([3]; Polymer P8 with stabilizer): 3.5
Iodine color number, 60 d 40° C. ([3]; Polymer P9 with stabilizer): 12.7
Iodine color number, start ([3]; Polymer P9 with stabilizer): 3.9
active-substance concentration, 0 d, RT ([4]; in Polymer P1): 250 ppm
active-substance concentration, 14 d, 40° C. ([4]; in Polymer P1): 217 ppm
active-substance concentration, 28 d, 40° C. ([4]; in Polymer P1): 156 ppm
active-substance concentration, 60 d 40° C. ([4]; in Polymer P1): 131 ppm
active-substance concentration, 0 d, RT ([4]; in Polymer P2): 250 ppm
active-substance concentration, 14 d, 40° C. ([4]; in Polymer P2): 181 ppm
active-substance concentration, 28 d, 40° C. ([4]; in Polymer P2): 139 ppm
active-substance concentration, 60 d 40° C. ([4]; in Polymer P2): 116 ppm
active-substance concentration, 0 d, RT ([4]; in Polymer P3): 250 ppm
active-substance concentration, 14 d, 40° C. ([4]; in Polymer P3): 171 ppm
active-substance concentration, 28 d, 40° C. ([4]; in Polymer P3): 140 ppm
active-substance concentration, 60 d 40° C. ([4]; in Polymer P3): 122 ppm
active-substance concentration, 0 d, RT ([4]; in Polymer P4): 250 ppm
active-substance concentration, 14 d, 40° C. ([4]; in Polymer P4): 164 ppm
active-substance concentration, 28 d, 40° C. ([4]; in Polymer P4): 136 ppm
active-substance concentration, 60 d 40° C. ([4]; in Polymer P4): 113 ppm
active-substance concentration, 0 d, RT ([4]; in Polymer P5 (HP56)): 250 ppm
active-substance concentration, 14 d, 40° C. ([4]; in Polymer P5 (HP56)): 151 ppm
active-substance concentration, 28 d, 40° C. ([4]; in Polymer P5 (HP56)): 119 ppm
active-substance concentration, 60 d 40° C. ([4]; in Polymer P5 (HP56)): 94 ppm
active-substance concentration, 0 d, RT ([4]; in Polymer P6): 250 ppm
active-substance concentration, 14 d, 40° C. ([4]; in Polymer P6): 143 ppm
active-substance concentration, 28 d, 40° C. ([4]; in Polymer P6): 117 ppm
active-substance concentration, 60 d 40° C. ([4]; in Polymer P6): 87 ppm
active-substance concentration, 0 d, RT ([4]; in Polymer P7): 250 ppm
active-substance concentration, 14 d, 40° C. ([4]; in Polymer P7): 149 ppm
active-substance concentration, 28 d, 40° C. ([4]; in Polymer P7): 123 ppm
active-substance concentration, 60 d 40° C. ([4]; in Polymer P7): 91 ppm
active-substance concentration, 0 d, RT ([4]; in Polymer P8): 250 ppm
active-substance concentration, 14 d, 40° C. ([4]; in Polymer P8): 151 ppm
active-substance concentration, 28 d, 40° C. ([4]; in Polymer P8): 119 ppm
active-substance concentration, 60 d 40° C. ([4]; in Polymer P8): 94 ppm
active-substance concentration, 0 d, RT ([4]; in Polymer P9): 250 ppm
active-substance concentration, 14 d, 40° C. ([4]; in Polymer P9): 131 ppm
active-substance concentration, 28 d, 40° C. ([4]; in Polymer P9): 98 ppm
active-substance concentration, 60 d 40° C. ([4]; in Polymer P9): 80 ppm
